Our source for the IC50 values is patent US20190177279A1, “CARBOXYLIC ACID AROMATIC 1,2-CYCLOPROPYLAMIDES” (Bayer Pharma Aktiengesellschaft, priority 2017, published 2019).

For one assay, the target named is T1, human B1 receptor (Homo sapiens, UniProt P46663).
T1 construct: host or cells: CHO-K1
T1 sequence (P46663 1-353): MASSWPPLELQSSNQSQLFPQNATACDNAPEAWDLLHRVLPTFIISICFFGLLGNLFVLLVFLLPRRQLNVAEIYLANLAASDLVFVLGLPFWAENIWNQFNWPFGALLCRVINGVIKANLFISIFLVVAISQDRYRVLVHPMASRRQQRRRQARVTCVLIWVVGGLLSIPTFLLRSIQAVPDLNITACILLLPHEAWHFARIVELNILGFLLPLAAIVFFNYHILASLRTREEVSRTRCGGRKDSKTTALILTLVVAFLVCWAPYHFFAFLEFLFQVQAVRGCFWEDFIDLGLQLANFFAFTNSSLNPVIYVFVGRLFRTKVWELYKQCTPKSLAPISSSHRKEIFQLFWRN
The assay can be described thus: Calcium flux assay (FLIPR) with recombinant CHO-K1 cells expressing human B1 receptor. In kind it is cell-based. Conditions: absence of 0.1% BSA in assay buffer, agonist Lys-(Des-Arg)-Bradykinin, read-out: hB1 free IC50. As to the method: The potency to inhibit the Bradykinin B1 receptors was determined for the example compounds of this invention in a cell-based fluorescent calcium-mobilisation assay. The assay measures the ability of example compounds to inhibit Bradykinin B1 receptor agonist-induced increase of intracellular free Ca^2+ in the cell line expressing B1 receptor. Specifically, calcium indicator—loaded cells are pre-incubated in the absence or presence of different concentrations of example compounds followed by the stimulation with a selective B1 receptor agonist peptide. The change of the intracellular Ca^2+ concentration is monitored with a fluorescent plate reader FLIPR (Molecular Devices).
Calcium flux Assay (FLIPR) with recombinant cells for Bradykinin B1 receptor antagonist, either in the presence (hB1 IC50) or absence (hB1 free IC50) of 0.1% BSA in assay buffer
CHO-K1 cell line expressing human B1 receptor was purchased from Euroscreen (Gosselies, Belgium, with reference name hB1-D1). The cells were grown in Nutrient Mixture Ham's F12 (Sigma) containing 10% Foetal bovine serum (Sigma) and 400 μg/mL G418 (Sigma), 5 μg/mL puromycin (Sigma).
For the calcium flux assay, 80% confluent cells were detached from the culture vessels with Versene (Gibco), and seeded into 384-well plates (Cell binding Surface; Corning, N.Y.; #3683) at a density of 15,000 cells per well. Cells were seeded in a volume of 50 μL in medium without antibiotics and incubated overnight in a humidified atmosphere with 5% CO2 at 37° C. […] The calcium indicator loaded cells were incubated at 37° C. for 2 hrs. Extracellular dye was then removed and each well was filled with 45 μL of assay buffer. Cell plates were kept in dark until used. Example compounds were assayed at 8 concentrations in triplicate. Serial 10-fold dilutions in 100% DMSO were made at a 100-times higher concentration than the final concentration, and then diluted 1:10 in assay buffer. 5 μL of each diluted compound was added to the well of cell plates (yielding final concentration with 1% DMSO), and incubated for 30 min at 28° C. before the addition of B1 receptor agonist on the FLIPR instrument.
Agonist plates contained the agonist Lys-(Des-Arg)-Bradykinin (Bachem, Brackley) at 3.5×EC90 in assay buffer with 1% DMSO. The addition of agonist 20 μl per well to the assay plate was carried out on the FLIPR instrument while continuously monitoring Ca^2+-dependent fluorescence at 538 nm. A peptide antagonist Lys-(Des-Arg-Leu)-Bradykinin (Bachem, Brackley) at 20 µM was used to determine the full inhibition as control.
Peak fluorescence was used to determine the response to agonist obtained at each concentration of example compound by the following equation:
% Response=100*(RFU(example compound)−RFU(control)/(RFU(DMSO)−RFU(control)) • Control=full inhibition by the peptide antagonist Lys-(Des-Arg-Leu)-Bradykinin at 20 μM
The response values were plotted against the logarithm of the compound concentrations. The compounds were tested in triplicates per plate and mean values were plotted in Excel XLfit to determine IC50 values, percentage of maximal inhibition and the Hill slopes.
Take `Cc1cccc(C2CC2C(=O)Nc2ccc(-c3cnn(C4CCC4)c3)c(C(=O)O)c2)c1` (racemic) [Example 5, 2-(1-cyclobutyl-1H-pyrazol-4-yl)-5-({[2-(3-methylphenyl)cyclopropyl]carbonyl}amino) benzoic acid]: the IC50 (as a rule, the concentration that gives 50% inhibition) was found to be 110 nM.

Take `O=C(O)c1cc(NC(=O)C2CC2c2ccc(Cl)cc2)ccc1-c1cnn(C2CCC2)c1` (racemic) [Example 6, 5-({[2-(4-chlorophenyl)cyclopropyl]carbonyl}amino)-2-(1-cyclobutyl-1H-pyrazol-4-yl)benzoic acid]: the IC50 was found to be 272 nM.

Turning to `O=C(O)c1cc(NC(=O)C2CC2c2ccccc2OC(F)(F)F)ccc1-c1cnn(C2CCC2)c1` (racemic) [Example 10, 2-(1-cyclobutyl-1H-pyrazol-4-yl)-5-[({2-[2-(trifluoromethoxy)phenyl]cyclopropyl}carbonyl)amino]benzoic acid], the IC50 turned out to be 353 nM.

For the molecule `O=C(O)c1cc(NC(=O)C2CC2c2cccc(C(F)(F)F)c2)ccc1-c1cnn(C2CCC2)c1` (racemic) [Example 12, 2-(1-cyclobutyl-1H-pyrazol-4-yl)-5-[({2-[3-(trifluoromethyl)phenyl]cyclopropyl}carbonyl)amino]benzoic acid], the IC50 was 126 nM.

Consider `CC(C)(C)c1cnn(-c2ccc(NC(=O)C3CC3c3ccc(Cl)cc3)cc2C(=O)O)c1` (racemic) [Example 13, 2-(4-tert-Butyl-1H-pyrazol-1-yl)-5-({[2-(4-chlorophenyl)cyclopropyl]carbonyl}amino)benzoic acid], for which the IC50 came out at 1760 nM.

As for `CC(C)(C)c1ccn(-c2ccc(NC(=O)C3CC3c3ccc(Cl)cc3)cc2C(=O)O)n1` (racemic) [Example 14, 2-(3-tert-Butyl-1H-pyrazol-1-yl)-5-({[2-(4-chlorophenyl)cyclopropyl]carbonyl}amino)benzoic acid], the IC50 worked out at 2220 nM.

For `Cc1ccc(-c2ccc(NC(=O)C3CC3c3ccc(Cl)cc3)cc2C(=O)O)cn1` (racemic) [Example 15, 5-({[2-(4-chlorophenyl)cyclopropyl]carbonyl}amino)-2-(6-methylpyridin-3-yl)benzoic acid], the IC50 came out at 2420 nM.

In the case of `CC(F)(F)c1ccc(-c2ccc(NC(=O)C3CC3c3ccccc3OC(F)(F)F)cc2C(=O)O)cn1` (racemic) [Example 16, 2-[6-(1,1-difluoroethyl)pyridin-3-yl]-5-[({2-[2-(trifluoromethoxy)phenyl]cyclopropyl}carbonyl)amino]benzoic acid], the IC50 turned out to be 2570 nM.

Take `CC(F)(F)c1ccc(-c2ccc(NC(=O)C3CC3c3cccc(Cl)c3)cc2C(=O)O)cn1` (racemic) [Example 17]: the IC50 was 2470 nM.

With `CC(F)(F)c1ccc(-c2ccc(NC(=O)C3CC3c3cccc(C(F)(F)F)c3)cc2C(=O)O)cn1` (racemic) [Example 18, 2-[6-(1,1-difluoroethyl)pyridin-3-yl]-5-[({2-[3-(trifluoromethyl)phenyl]cyclopropyl}carbonyl)amino]bentoic acid], the half-maximal inhibitory concentration (IC50) was found to be 2510 nM.

Turning to `CC(F)(F)c1ccc(-c2ccc(NC(=O)C3CC3c3ccc(Cl)cc3)cc2C(=O)O)cn1` (racemic) [Example 19, 5-({[2-(4-chlorophenyl)cyclopropyl]carbonyl}amino)-2-[6-(1,1-difluoroethyl)pyridin-3-yl]benzoic acid], the IC50 was 2490 nM.

In the case of `CCC(F)(F)c1ccc(-c2ccc(NC(=O)C3CC3c3ccccc3OC(F)(F)F)cc2C(=O)O)cn1` (racemic) [Example 20, 2-[6-(1,1-difluoropropyl)pyridin-3-yl]-5-[({2-[2-(trifluoromethoxy)phenyl]cyclopropyl}carbonyl)amino]benzoic acid], the IC50 stood at 1520 nM.

In the case of `CCC(F)(F)c1ccc(-c2ccc(NC(=O)C3CC3c3cccc(C(F)(F)F)c3)cc2C(=O)O)cn1` (racemic) [Example 21, 2-[6-(1,1-difluoropropyl)pyridin-3-yl]-5-[({2-[3-(trifluoromethyl)phenyl]cyclopropyl}carbonyl)amino]benzoic acid], the IC50 was 403 nM.

Take `CCC(F)(F)c1ccc(-c2ccc(NC(=O)C3CC3c3cccc(Cl)c3)cc2C(=O)O)cn1` (racemic) [Example 22, 5-({[2-(3-chlorophenyl)cyclopropyl]carbonyl}amino)-2-[6-(1,1-difluoropropyl)pyridin-3-yl]benzoic acid]: the IC50 was 1190 nM.

With `O=C(O)c1cc(NC(=O)C2CC2c2ccc(Cl)cc2)ccc1-c1cnn(C2CCC2)c1` (single isomer, unassigned) [Example 7, 5-({[2-(4-chlorophenyl)cyclopropyl]carbonyl}amino)-2-(1-cyclobutyl-1H-pyrazol-4-yl)benzoic acid], the IC50 was 117 nM.

As to `O=C(O)c1cc(NC(=O)C2CC2c2cccc(Cl)c2)ccc1-c1cnn(C2CCC2)c1` (single isomer, unassigned) [Example 11, 5-({[2-(3-chlorophenyl)cyclopropyl]carbonyl}amino)-2-(1-cyclobutyl-1H-pyrazol-4-yl)benzoic acid], the IC50 is 32 nM.

On to `O=C(O)c1cc(NC(=O)C2CC2c2cccc(Cl)c2)cc(F)c1-c1cnn(C2CCC2)c1` (single isomer, unassigned; (+)) [Example 8, (+)-5-({[2-(3-chlorophenyl)cyclopropyl]carbonyl}amino)-2-(1-cyclobutyl-1H-pyrazol-4-yl)-3-fluorobenzoic acid], for which the IC50 amounted to 1130 nM.

On to `O=C(O)c1cc(NC(=O)C2CC2c2cccc(Cl)c2)cc(F)c1-c1cnn(C2CCC2)c1` (single isomer, unassigned; (-)) [Example 9, (−)-5-({[2-(3-chlorophenyl)cyclopropyl]carbonyl}amino)-2-(1-cyclobutyl-1H-pyrazol-4-yl)-3-fluorobenzoic acid], for which the IC50 is 17 nM.

In the case of “(−)-5-({[trans-2-(4-chlorophenyl)cyclopropyl]carbonyl}amino)-2-(1-cyclobutyl-1H-pyrazol-4-yl)-3-fluorobenzoic acid [Example 4]”, the IC50 was found to be 1180 nM.

For a further assay, the target named is T2, native human B1 receptors (Homo sapiens, UniProt P46663).
T2 construct: which express native human B1 receptors after induction with human IL-1; Coriell Institute; host or cells: IMR-90 human foetal lung fibroblasts, induced with human IL-1
T2 sequence (P46663 1-353): T1 sequence (P46663 1-353)
In words: Calcium flux assay (FLIPR) with IMR-90 human foetal lung fibroblasts after IL-1 induction. In kind it is cell-based. The settings on record: IMR-90 fibroblasts induced with human IL-1; 0.1% BSA in assay buffer; agonist Lys-(Des-Arg)-Bradykinin at EC90; read-out: hB1 IC50 IMR90. As to the method: Calcium Flux Assay (FLIPR) with Human Fibroblasts for Bradykinin B1 Receptor Antagonist (hB1 IMR-90 IC50)
The Calcium flux Assay was carried out utilising IMR-90 human foetal lung fibroblasts (American Type Culture Collection, Rockville, Md.; and Coriell Institute, Camden, N.J.), which express native human B1 receptors after induction with human IL-1[…].
The fibroblasts were cultured in complete growth media comprised of Dulbecco's modified Eagle's medium (DMEM; Sigma) containing 10% foetal bovine serum, 4 mM L-glutamine, and 1% nonessential amino acids. The cells were maintained in a humidified atmosphere with 5% CO2 at 37° C. and were sub-cultured at a ratio of 1:3, every other day.
For the assay, IMR-90 fibroblasts were harvested using TrypLE Express (GIBCO/Invitrogen) and seeded into 384-well plates (Corning Cellbinding Surface, Cat. 3683) at a density of 15000 cells/well. The following day, cells were treated with 0.35 ng/mL human IL-1[…] in 10% FBS/MEM for 3 h to up-regulate B1 receptors. Induced cells were loaded with fluorescent calcium indicator by incubation with 2.5 μM Fluo-4/AM (Invitrogen) at 37° C., 5% CO2 for 2 h in the presence of 2.5 mM probenecid in 1% FBS/MEM. Extracellular dye was removed by washing with assay buffer (2.5 mM probenecid and 0.1% BSA in 20 mM HEPES/HBSS without bicarbonate or phenol red, pH 7.5). Example compounds were assayed at 8 concentrations in triplicate. After addition of example compounds to the cell plate and incubation for 30 min at 28° C., the addition of B1 agonist Lys-(Des-Arg)-Bradykinin (Bachem, Brackley) at a final concentration of EC90 was carried out on the FLIPR instrument while continuously monitoring Ca^2+-dependent fluorescence at 538 nm. A peptide antagonist Lys-(Des-Arg-Leu)-Bradykinin (Bachem, Brackley) at 20 μM was used to determine the full inhibition as control. IC50 values were determined by the same way described for the FLIPR assay with recombinant cells.
(In general: Calcium flux is commonly read through the fluorescence of an indicator in the cells.)
With `CC(C)(C)c1cnn(-c2ccc(NC(=O)C3CC3c3ccc(Cl)cc3)cc2C(=O)O)c1` (racemic) [Example 13, 2-(4-tert-Butyl-1H-pyrazol-1-yl)-5-({[2-(4-chlorophenyl)cyclopropyl]carbonyl}amino)benzoic acid], the IC50 was 3390 nM.

In the case of `Cc1ccc(-c2ccc(NC(=O)C3CC3c3ccc(Cl)cc3)cc2C(=O)O)cn1` (racemic) [Example 15, 5-({[2-(4-chlorophenyl)cyclopropyl]carbonyl}amino)-2-(6-methylpyridin-3-yl)benzoic acid], the IC50 came to 12000 nM.
